Reference: patent US5055485A, “Inactivation of viruses in cell- and protein-containing compositions using aryl diol epoxides” (New York Blood Center, Inc., priority 1988, dated 1991)
≈ marks a conversion by molar mass, not a printed value. Like-named read-outs stand apart in the source and are kept apart here.

Tests used:
AHF = assay: Plasma protein functional activity: AHF; assay type: biochemical; details: human plasma, 10 μm, 6 hours, 24° C.
Factor IX = assay: Plasma protein functional activity: Factor IX; assay type: biochemical; details: human plasma, 10 μm, 6 hours, 24° C.
Anti-HBsAg = assay: Plasma protein functional activity: Anti-HBsAg titer; assay type: biochemical; details: human plasma, 10 μm, 6 hours, 24° C.
VSV [1] = assay: microbe, parasite or virus in culture; assay type: cell-based, vesicular stomatitis virus; details: for log reduction at 10 µM: Vesicular stomatitis virus, 6 h
[2] = Solubility in aqueous media / water; assay type: physicochemical
Fibrinogen = assay: Plasma protein functional activity: fibrinogen clottability; assay type: biochemical; details: human plasma, 10 μm, 6 hours, 24° C.
[3] = Hydrolysis in aqueous medium; assay type: physicochemical; details: iscove's medium 10% fbs; Iscove's medium containing 10% fetal bovine serum
VSV [4] = assay type: cell-based, vesicular stomatitis virus
[5] = test system: Vesicular stomatitis virus (VSV); assay type: cell-based
VSV [6] = assay: microbe, parasite or virus in culture; assay type: cell-based; details: Vesicular stomatitis virus, A549, read-out: virus kill (cell-associated VSV)
Haptoglobin = assay: Plasma protein: haptoglobin; assay type: biochemical; details: human plasma, 10 μm, 6 hours, 24° C.
selected plasma proteins = assay: Functional activity of selected plasma proteins, overall; assay type: biochemical; details: human plasma, 10 μm, 6 hours, 24° C.
[7] = test system: washed human red blood cells; assay: Red cell structural and functional integrity; details: conditions of Example 2
[8] = test system: proteinaceous components of the plasma; details: background art; cited from earlier work
factor VIII = details: background art; cited from earlier work
[9] = background art; cited from earlier work
DNA = details: background art; cited from earlier work
viruses = details: background art; cited from earlier work

Compound: O[C@H]1[C@H]2O[C@H]2c2c(cc3ccc4cccc5ccc2c3c45)[C@@H]1O (relative stereo) [BAPDE, trans-7,8-dihydroxy [anti] 9,10 epoxy-7,8,9,10-tetrahydro benzo[a]pyrene]
- AHF Recovery (%) (AHF): 79%
- AHF following treatment with BAPDE (AHF; no treatment 0.70): 0.55 units/ml
- Factor IX Recovery (%) (Factor IX): 100%
- Factor IX following treatment with BAPDE (Factor IX; no treatment 0.9): 0.9 units/ml
- Anti-HBsAg Recovery (%) (Anti-HBsAg): 110%
- Anti-HBsAg following treatment with BAPDE (Anti-HBsAg; no treatment 0.50): 0.55 titer
- VSV Infectivity following treatment with BAPDE (VSV [1]): < -0.5
- log reduction at 10 µM (VSV [1]; read-out: virus inactivation): > 4.5
- log reduction at 10 µM (VSV [1]; read-out: VSV Infectivity change: log10 Kill): > 4.6
- toxicity to A549 cells (A549 cells): Neither BAPDE nor the solvent in which it was dissolved (e.g., tetrahydroturan) were toxic to A549 cells
- solubility [2]: 1 to 10 µM (≈ 0.302 to 3.02 µg/mL)
- Fibrinogen clottability Recovery (%) (Fibrinogen): 100%
- Fibrinogen clottability following treatment with BAPDE (Fibrinogen; no treatment clottable): clottable
- half-life [3]: ~30 min
- VSV inactivation in the presence of red cells (in words) (VSV [4]): reduced in the presence of red cells
- virus titer reduction (VSV [4]): at least 3 logs
- virus inactivated [5]: > 5 logs
- log reduction at 3 µM (VSV [6]): > 5.5
- Haptoglobin Recovery (%) (Haptoglobin): 97%
- Haptoglobin following treatment with BAPDE (Haptoglobin; no treatment 175): 170 mg/dL
- loss of protein functional activity (in words) (selected plasma proteins): without significant loss of protein functional activity
- 2,3 diphosphoglycerate levels [7]: within the normal range
- ATP levels [7]: within the normal range
- Red cell structural and functional integrity [7]: not compromised
- hemoglobin content [7]: within the normal range
- osmotic fragility [7]: within the normal range

Compound: O=C1CCO1 [Beta-propiolactone, beta-propiolactone]
- denaturation of plasma proteins [8]: substantially denaturate valuable plasma proteins
- loss of factor VIII content of plasma (factor VIII): more than half of the factor VIII content of plasma is lost

Compound: CN(C)c1ccc2cc3ccc(N(C)C)cc3nc2c1 [acridine orange]
- water solubility (in words) [9]: water soluble
- binding to DNA (DNA): bind extremely well to DNA

Compound: C=O [formaldehyde]
- denaturation of plasma proteins [8]: denatured the valuable proteinaceous components of the plasma

Compound: O=CCCCC=O [glutaraldehyde]
- viral inactivation and effect on cells (in words) (viruses): inactivates viral infectivity, but fixes cells
- denaturation of plasma proteins [8]: denatured the valuable proteinaceous components of the plasma

Compound: Nc1ccc2cc3ccc(N)cc3nc2c1 [proflavin]
- water solubility (in words) [9]: water soluble
- binding to DNA (DNA): bind extremely well to DNA

Compound: OCl [sodium hypochlorite]
- denaturation of plasma proteins [8]: denatured the valuable proteinaceous components of the plasma
